Laboratory results: ChEMBL document CHEMBL5543142, “Discovery of YFJ-36: Design, Synthesis, and Antibacterial Activities of Catechol-Conjugated β-Lactams against Gram-Negative Bacteria” (J Med Chem, 2024)
Values after ≈ are worked out from the molar mass of the structure shown.

Tests used:
Pseudomonas aeruginosa [1] = test: Antibacterial activity against Pseudomonas aeruginosa ATCC 27853 assessed as inhibition of bacterial growth incubated for 18 to 20 hrs by two fold serial dilution assay; type: functional; settings: time 18-20 hrs
Escherichia coli [2] = test: Antibacterial activity against ESBL-producing multidrug-resistant Escherichia coli clinical isolate 14-1 assessed as inhibition of bacterial growth incubated for 18 to 20 hrs by two fold serial dilution assay; type: functional; settings: time 18-20 hrs
Escherichia coli [3] = test: Antibacterial activity against ESBL-producing multidrug-resistant Escherichia coli clinical isolate 14-2 assessed as inhibition of bacterial growth incubated for 18 to 20 hrs by two fold serial dilution assay; type: functional; settings: time 18-20 hrs
Escherichia coli [4] = test: Antibacterial activity against ESBL-producing multidrug-resistant Escherichia coli clinical isolate 14-4 assessed as inhibition of bacterial growth incubated for 18 to 20 hrs by two fold serial dilution assay; type: functional; settings: time 18-20 hrs
Acinetobacter baumannii [5] = test: Antibacterial activity against OXA-23 producing multidrug-resistant Acinetobacter baumannii clinical isolate 15-3 assessed as inhibition of bacterial growth incubated for 18 to 20 hrs by two fold serial dilution assay; type: functional; settings: time 18-20 hrs
Acinetobacter baumannii [6] = test: Antibacterial activity against OXA-23 producing multidrug-resistant Acinetobacter baumannii clinical isolate 15-4 assessed as inhibition of bacterial growth incubated for 18 to 20 hrs by two fold serial dilution assay; type: functional; settings: time 18-20 hrs
Acinetobacter baumannii [7] = test: Antibacterial activity against OXA-23 producing multidrug-resistant Acinetobacter baumannii clinical isolate 15-5 assessed as inhibition of bacterial growth incubated for 18 to 20 hrs by two fold serial dilution assay; type: functional; settings: time 18-20 hrs
Klebsiella pneumoniae [8] = test: Antibacterial activity against KPC-2 producing multidrug-resistant Klebsiella pneumoniae clinical isolate 15-1 assessed as inhibition of bacterial growth incubated for 18 to 20 hrs by two fold serial dilution assay; type: functional; settings: time 18-20 hrs
Klebsiella pneumoniae [9] = test: Antibacterial activity against KPC-2 producing multidrug-resistant Klebsiella pneumoniae clinical isolate 15-2 assessed as inhibition of bacterial growth incubated for 18 to 20 hrs by two fold serial dilution assay; type: functional; settings: time 18-20 hrs
Klebsiella pneumoniae [10] = test: Antibacterial activity against KPC-2 producing multidrug-resistant Klebsiella pneumoniae clinical isolate 15-5 assessed as inhibition of bacterial growth incubated for 18 to 20 hrs by two fold serial dilution assay; type: functional; settings: time 18-20 hrs
Pseudomonas aeruginosa [11] = test: Antibacterial activity against IMP-4 producing multidrug-resistant Pseudomonas aeruginosa clinical isolate 15-1 assessed as inhibition of bacterial growth incubated for 18 to 20 hrs by two fold serial dilution assay; type: functional; settings: time 18-20 hrs
Pseudomonas aeruginosa [12] = test: Antibacterial activity against IMP-4 producing multidrug-resistant Pseudomonas aeruginosa clinical isolate 15-5 assessed as inhibition of bacterial growth incubated for 18 to 20 hrs by two fold serial dilution assay; type: functional; settings: time 18-20 hrs
Escherichia coli [13] = test: Antibacterial activity against Escherichia coli ATCC35218 assessed as inhibition of bacterial growth incubated for 18 to 20 hrs by two fold serial dilution assay; type: functional; settings: time 18-20 hrs
Pseudomonas aeruginosa [14] = test: Antibacterial activity against IMP-4 producing multidrug-resistant Pseudomonas aeruginosa clinical isolate 17-13 assessed as inhibition of bacterial growth incubated for 18 to 20 hrs by two fold serial dilution assay; type: functional; settings: time 18-20 hrs
Pseudomonas aeruginosa [15] = test: Antibacterial activity against IMP-4 producing multidrug-resistant Pseudomonas aeruginosa clinical isolate 17-1 assessed as inhibition of bacterial growth incubated for 18 to 20 hrs by two fold serial dilution assay; type: functional; settings: time 18-20 hrs
Pseudomonas aeruginosa [16] = test: Antibacterial activity against IMP-4 producing multidrug-resistant Pseudomonas aeruginosa clinical isolate 19-17 assessed as inhibition of bacterial growth incubated for 18 to 20 hrs by two fold serial dilution assay; type: functional; settings: time 18-20 hrs
Acinetobacter baumannii [17] = test: Antibacterial activity against OXA-23 producing multidrug-resistant Acinetobacter baumannii clinical isolate 17-2 assessed as inhibition of bacterial growth incubated for 18 to 20 hrs by two fold serial dilution assay; type: functional; settings: time 18-20 hrs
Pseudomonas aeruginosa [18] = test: Antibacterial activity against IMP-4 producing multidrug-resistant Pseudomonas aeruginosa clinical isolate 19-5 assessed as inhibition of bacterial growth incubated for 18 to 20 hrs by two fold serial dilution assay; type: functional; settings: time 18-20 hrs
Pseudomonas aeruginosa [19] = test: Antibacterial activity against IMP-4 producing multidrug-resistant Pseudomonas aeruginosa clinical isolate 19-1 assessed as inhibition of bacterial growth incubated for 18 to 20 hrs by two fold serial dilution assay; type: functional; settings: time 18-20 hrs
Acinetobacter baumannii [20] = test: Antibacterial activity against OXA-23 producing multidrug-resistant Acinetobacter baumannii clinical isolate 17-5 assessed as inhibition of bacterial growth incubated for 18 to 20 hrs by two fold serial dilution assay; type: functional; settings: time 18-20 hrs
Acinetobacter baumannii [21] = test: Antibacterial activity against OXA-23 producing multidrug-resistant Acinetobacter baumannii clinical isolate 17-6 assessed as inhibition of bacterial growth incubated for 18 to 20 hrs by two fold serial dilution assay; type: functional; settings: time 18-20 hrs
Acinetobacter baumannii [22] = test: Antibacterial activity against OXA-23 producing multidrug-resistant Acinetobacter baumannii clinical isolate 17-7 assessed as inhibition of bacterial growth incubated for 18 to 20 hrs by two fold serial dilution assay; type: functional; settings: time 18-20 hrs
Acinetobacter baumannii [23] = test: Antibacterial activity against OXA-23 producing multidrug-resistant Acinetobacter baumannii clinical isolate 17-8 assessed as inhibition of bacterial growth incubated for 18 to 20 hrs by two fold serial dilution assay; type: functional; settings: time 18-20 hrs
Klebsiella pneumoniae [24] = test: Antibacterial activity against KPC-2 producing multidrug-resistant Klebsiella pneumoniae clinical isolate 15-3 assessed as inhibition of bacterial growth incubated for 18 to 20 hrs by two fold serial dilution assay; type: functional; settings: time 18-20 hrs
Escherichia coli [25] = test: Antibacterial activity against Escherichia coli NCTC-13353 assessed as inhibition of bacterial growth incubated for 18 to 20 hrs in presence of CAMHB medium by two fold serial dilution assay; type: functional; settings: time 18-20 hrs
Escherichia coli [26] = test: Antibacterial activity against Escherichia coli ATCC-35218 infected in ICR mouse assessed as inhibition of bacterial growth at iv after 1 and 5 hour of post-infection measured after 7 days; type: functional; settings: ATCC-35218, 168 h, time 7 day
Acinetobacter baumannii [27] = test: Antibacterial activity against multidrug-resistant Acinetobacter baumannii BM-2023-D2-010 infected in ICR mouse assessed as inhibition of bacterial growth at iv after 1 and 5 hour of post-infection measured after 7 days; type: functional; settings: BM-2023-D2-010, 168 h, time 7 day
Acinetobacter baumannii [28] = test: Antibacterial activity against multidrug-resistant Acinetobacter baumannii BM-2023-D2-010 infected in ICR mouse assessed as survival rate at 40 mg/kg,iv after 1 and 5 hour of post-infection measured after 7 days relative to control; type: functional; settings: time 7 day
Acinetobacter baumannii [29] = test: Antibacterial activity against OXA-23 producing multidrug-resistant Acinetobacter baumannii clinical isolate 15-1 assessed as inhibition of bacterial growth incubated for 18 to 20 hrs by two fold serial dilution assay; type: functional; settings: time 18-20 hrs
Acinetobacter baumannii [30] = test: Antibacterial activity against OXA-23 producing multidrug-resistant Acinetobacter baumannii clinical isolate 15-2 assessed as inhibition of bacterial growth incubated for 18 to 20 hrs by two fold serial dilution assay; type: functional; settings: time 18-20 hrs
Pseudomonas aeruginosa [31] = test: Antibacterial activity against IMP-4 producing multidrug-resistant Pseudomonas aeruginosa clinical isolate 15-4 assessed as inhibition of bacterial growth incubated for 18 to 20 hrs by two fold serial dilution assay; type: functional; settings: time 18-20 hrs
Acinetobacter baumannii [32] = test: Antibacterial activity against OXA-23 producing multidrug-resistant Acinetobacter baumannii clinical isolate 17-3 assessed as inhibition of bacterial growth incubated for 18 to 20 hrs by two fold serial dilution assay; type: functional; settings: time 18-20 hrs
Escherichia coli [33] = test: Antibacterial activity against Escherichia coli ATCC-35218 assessed as inhibition of bacterial growth incubated for 18 to 20 hrs in presence of CAMHB medium by two fold serial dilution assay; type: functional; settings: time 18-20 hrs
Klebsiella pneumoniae [34] = test: Antibacterial activity against Klebsiella pneumoniae ATCC BAA-1898 assessed as inhibition of bacterial growth incubated for 18 to 20 hrs in presence of CAMHB medium by two fold serial dilution assay; type: functional; settings: time 18-20 hrs
Escherichia coli [35] = test: Antibacterial activity against Escherichia coli NCTC-13353 assessed as inhibition of bacterial growth incubated for 18 to 20 hrs in presence of iron-depleted CAMHB medium by two fold serial dilution assay; type: functional; settings: time 18-20 hrs
Escherichia coli [36] = test: Antibacterial activity against Escherichia coli ATCC-35218 assessed as inhibition of bacterial growth incubated for 18 to 20 hrs in presence of iron-depleted CAMHB medium by two fold serial dilution assay; type: functional; settings: time 18-20 hrs
Klebsiella pneumoniae [37] = test: Antibacterial activity against Klebsiella pneumoniae ATCC BAA-1898 assessed as inhibition of bacterial growth incubated for 18 to 20 hrs in presence of iron-depleted CAMHB medium by two fold serial dilution assay; type: functional; settings: time 18-20 hrs
[38] = Plasma protein binding in mouse incubated for 35 mins by LC-MS/MS analysis; type: ADME, cell-free; settings: read-out: PPB (converted)
[39] = molecular target: Voltage-gated inwardly rectifying potassium channel KCNH2 (Homo sapiens, UniProt Q12809); test: Inhibition of hERG by whole cell Qpatch assay; type: toxicity
Acinetobacter baumannii [40] = test: Antibacterial activity against multidrug-resistant Acinetobacter baumannii BM-2023-D2-010 infected in ICR mouse assessed as inhibition of bacterial growth by measuring its effective dose at iv after 1 and 5 hour of post-infection measured after 7 days; type: functional; settings: BM-2023-D2-010, 168 h, time 7 day

Voltage-gated inwardly rectifying potassium channel KCNH2, sequence (Q12809 whole entry): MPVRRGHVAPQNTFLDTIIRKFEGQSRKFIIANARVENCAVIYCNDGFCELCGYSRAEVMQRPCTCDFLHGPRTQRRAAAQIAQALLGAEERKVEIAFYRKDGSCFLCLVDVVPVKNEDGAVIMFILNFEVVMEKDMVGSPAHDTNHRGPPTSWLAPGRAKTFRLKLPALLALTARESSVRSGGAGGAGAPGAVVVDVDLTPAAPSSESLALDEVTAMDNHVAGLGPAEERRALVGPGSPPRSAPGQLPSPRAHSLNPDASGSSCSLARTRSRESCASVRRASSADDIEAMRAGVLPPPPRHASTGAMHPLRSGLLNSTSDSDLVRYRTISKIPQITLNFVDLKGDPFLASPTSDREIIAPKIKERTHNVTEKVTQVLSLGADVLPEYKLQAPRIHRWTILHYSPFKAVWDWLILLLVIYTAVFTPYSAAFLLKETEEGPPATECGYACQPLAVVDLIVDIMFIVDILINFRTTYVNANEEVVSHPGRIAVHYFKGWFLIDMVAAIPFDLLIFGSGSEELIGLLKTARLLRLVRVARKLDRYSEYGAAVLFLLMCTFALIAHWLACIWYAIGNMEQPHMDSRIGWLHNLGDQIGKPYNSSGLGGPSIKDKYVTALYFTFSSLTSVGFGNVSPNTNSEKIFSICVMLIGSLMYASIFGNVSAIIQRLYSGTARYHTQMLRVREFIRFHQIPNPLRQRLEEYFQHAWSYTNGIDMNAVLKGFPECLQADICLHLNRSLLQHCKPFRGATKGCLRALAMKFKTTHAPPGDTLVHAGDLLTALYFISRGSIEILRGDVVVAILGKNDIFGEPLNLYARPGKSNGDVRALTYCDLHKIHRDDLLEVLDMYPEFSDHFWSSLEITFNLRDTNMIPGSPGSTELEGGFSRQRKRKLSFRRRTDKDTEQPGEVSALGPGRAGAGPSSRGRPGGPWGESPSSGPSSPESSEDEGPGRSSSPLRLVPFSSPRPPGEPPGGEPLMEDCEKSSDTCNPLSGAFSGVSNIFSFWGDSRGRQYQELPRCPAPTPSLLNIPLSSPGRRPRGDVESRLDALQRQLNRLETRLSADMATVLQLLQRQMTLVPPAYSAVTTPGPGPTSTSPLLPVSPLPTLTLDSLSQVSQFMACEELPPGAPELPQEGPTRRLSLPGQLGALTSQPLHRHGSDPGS

Row | SMILES | MIC (Pseudomonas aeruginosa [1]) [µg/mL] | MIC (Escherichia coli [2]) [µg/mL] | MIC (Escherichia coli [3]) [µg/mL] | MIC (Escherichia coli [4]) [µg/mL] | MIC (Acinetobacter baumannii [5]) [µg/mL] | MIC (Acinetobacter baumannii [6]) [µg/mL] | MIC (Acinetobacter baumannii [7]) [µg/mL] | MIC (Klebsiella pneumoniae [8]) [µg/mL] | MIC (Klebsiella pneumoniae [9]) [µg/mL] | MIC (Klebsiella pneumoniae [10]) [µg/mL] | MIC (Pseudomonas aeruginosa [11]) [µg/mL] | MIC (Pseudomonas aeruginosa [12]) [µg/mL] | MIC (Escherichia coli [13]) [µg/mL] | MIC (Pseudomonas aeruginosa [14]) [µg/mL] | MIC (Pseudomonas aeruginosa [15]) [µg/mL] | MIC (Pseudomonas aeruginosa [16]) [µg/mL] | MIC (Acinetobacter baumannii [17]) [µg/mL] | MIC (Pseudomonas aeruginosa [18]) [µg/mL] | MIC (Pseudomonas aeruginosa [19]) [µg/mL] | MIC (Acinetobacter baumannii [20]) [µg/mL] | other results
1 | C[C@@H](O)[C@H]1C(=O)N2C(C(=O)O)=C(S[C@@H]3CN[C@H](C(=O)N(C)C)C3)[C@H](C)[C@H]12 [MEROPENEM] | 1 (≈ 2.61 µM) | 0.125 (≈ 0.326 µM) | 2 (≈ 5.22 µM) | 4 (≈ 10.4 µM) | 32 (≈ 83.4 µM) | 32 (≈ 83.4 µM) | 32 (≈ 83.4 µM) | > 64 | > 64 | > 64 | 32 (≈ 83.4 µM) | 16 (≈ 41.7 µM) | 0.06 (≈ 0.156 µM) | 16 (≈ 41.7 µM) | 4 (≈ 10.4 µM) | 32 (≈ 83.4 µM) | > 64 | 16 (≈ 41.7 µM) | 0.5 (≈ 1.3 µM) | > 64 | MIC (Acinetobacter baumannii [21]): > 64 µg/mL; MIC (Acinetobacter baumannii [22]): > 64 µg/mL; MIC (Acinetobacter baumannii [23]): > 64 µg/mL; MIC (Klebsiella pneumoniae [24]): > 64 µg/mL; MIC (Escherichia coli [25]): 32 µg/mL; MIC (Escherichia coli [26]): ≤ 0.03 µg/mL; MIC (Acinetobacter baumannii [27]): > 64 µg/mL; Activity (Acinetobacter baumannii [28]): 0%
2 | CC(C)(O/N=C(\C(=O)N[C@@H]1C(=O)N2C(C(=O)[O-])=C(C[N+]3(CCNC(=O)c4ccc(O)c(O)c4Cl)CCCC3)CS[C@H]12)c1csc(N)n1)C(=O)O [CEFIDEROCOL] | 2 (≈ 2.66 µM) | 0.125 (≈ 0.166 µM) | 1 (≈ 1.33 µM) | 2 (≈ 2.66 µM) | 4 (≈ 5.32 µM) | 4 (≈ 5.32 µM) | 2 (≈ 2.66 µM) | 8 (≈ 10.6 µM) | 4 (≈ 5.32 µM) | 8 (≈ 10.6 µM) | 4 (≈ 5.32 µM) | 2 (≈ 2.66 µM) | 0.06 (≈ 0.0798 µM) | 1 (≈ 1.33 µM) | 8 (≈ 10.6 µM) | 0.5 (≈ 0.665 µM) | 1 (≈ 1.33 µM) | 1 (≈ 1.33 µM) | 2 (≈ 2.66 µM) | 2 (≈ 2.66 µM) | MIC (Acinetobacter baumannii [29]): 8 µg/mL (≈ 10.6 µM); MIC (Acinetobacter baumannii [30]): 2 µg/mL (≈ 2.66 µM); MIC (Pseudomonas aeruginosa [31]): 2 µg/mL (≈ 2.66 µM); MIC (Acinetobacter baumannii [32]): 1 µg/mL (≈ 1.33 µM); MIC (Acinetobacter baumannii [21]): 1 µg/mL (≈ 1.33 µM); MIC (Acinetobacter baumannii [22]): 2 µg/mL (≈ 2.66 µM); MIC (Acinetobacter baumannii [23]): 1 µg/mL (≈ 1.33 µM); MIC (Klebsiella pneumoniae [24]): 8 µg/mL (≈ 10.6 µM); MIC (Escherichia coli [25]): 0.5 µg/mL; MIC (Escherichia coli [33]): 1 µg/mL; MIC (Klebsiella pneumoniae [34]): 8 µg/mL; MIC (Escherichia coli [35]): 0.5 µg/mL; MIC (Escherichia coli [36]): 0.06 µg/mL; MIC (Klebsiella pneumoniae [37]): 2 µg/mL; MIC (Escherichia coli [26]): 0.12 µg/mL (≈ 0.16 µM); MIC (Acinetobacter baumannii [27]): 0.25 µg/mL (≈ 0.332 µM); fraction unbound at 35 min [38]: 0.801; IC50 [39]: 42 nM; ED50 (Acinetobacter baumannii [40]): 7 mg/kg
